Measured values from paper PMC7664637, “In Vitro and In Silico Evaluation of Anticancer Activity of New Indole-Based 1,3,4-Oxadiazoles as EGFR and COX-2 Inhibitors” (Molecules, 2020).

How the values were obtained:
[1] = test system: HCT116 human colorectal carcinoma cell line; assay: MTT cytotoxicity assay, HCT116; conditions: HCT-116, 48 h, read-out: IC50 HCT-116 Cell Line
Description: (§2) At the end of this period, supernatants were removed, and 100 μL DMSO was added to each well to solubilize the formazan crystals. The absorbance of the solution was determined on an Infinite M1000 plate reader (Tecan, Mannedorf, Switzerland) at a wavelength of 550 nm with background subtraction at 630 nm.

[2] = test system: A375 human melanoma cell line; assay: MTT cytotoxicity assay, A375; conditions: A-375, 48 h, read-out: IC50 A375 Cell Line
Description: as §2

[3] = test system: A549 human lung adenocarcinoma cell line; assay: MTT cytotoxicity assay, A549; conditions: A549, 48 h, read-out: IC50 A549 Cell Line
Description: as §2

[4] = test system: Jurkat human leukemic T-cells; assay: MTT cytotoxicity assay, Jurkat cells (tumor selectivity); conditions: 48 h, read-out: IC50 Jurkat Cells
Description: as §2

[5] = test system: peripheral blood mononuclear cells (PBMCs); assay: MTT cytotoxicity assay, PBMCs (tumor selectivity); conditions: Homo sapiens, PBMC, 48 h, read-out: IC50 PBMCs
Description: as §2

KDR = biological target: T1, KDR (Homo sapiens, UniProt P35968); assay: Kinase profiling assay (ADP-Glo), KDR; type: biochemical; conditions: 1 h, room temperature
T1 construct: purchased Promega Corporation
Description: (§1) The kinase profiling assay protocol was applied according to the manufacturer’s instructions (Promega Corporation, Madison, WI, USA) with modification. […] Then, the reaction of the kinase was performed using 2 µL of compound solution at varying concentrations (0.1–100 µM), 4 µL of kinase working stock, and 4 µL of ATP/substrate working stock in the 384-well plate. After 1 h of incubation at room temperature, the activity of kinase was detected using ADP-Glo kinase assay (Promega Corporation, Madison, WI, USA), and kinase inhibitory activity of compounds in dose–response mode was measured by an Infinite M1000 luminescence plate reader (Tecan, Groding, Austria).

HER2 = biological target: T2, HER2 (Homo sapiens, UniProt P04626); assay: Kinase profiling assay (ADP-Glo), HER2; type: biochemical; conditions: 1 h, room temperature
T2 construct: purchased Promega Corporation
Description: as §1

COX-1 = biological target: T3, COX-1 (Ovis aries, UniProt P05979); assay: In vitro COX inhibition assay (COX (ovine/human) inhibitor screening kit), COX-1
T3 sequence (P05979 25-600): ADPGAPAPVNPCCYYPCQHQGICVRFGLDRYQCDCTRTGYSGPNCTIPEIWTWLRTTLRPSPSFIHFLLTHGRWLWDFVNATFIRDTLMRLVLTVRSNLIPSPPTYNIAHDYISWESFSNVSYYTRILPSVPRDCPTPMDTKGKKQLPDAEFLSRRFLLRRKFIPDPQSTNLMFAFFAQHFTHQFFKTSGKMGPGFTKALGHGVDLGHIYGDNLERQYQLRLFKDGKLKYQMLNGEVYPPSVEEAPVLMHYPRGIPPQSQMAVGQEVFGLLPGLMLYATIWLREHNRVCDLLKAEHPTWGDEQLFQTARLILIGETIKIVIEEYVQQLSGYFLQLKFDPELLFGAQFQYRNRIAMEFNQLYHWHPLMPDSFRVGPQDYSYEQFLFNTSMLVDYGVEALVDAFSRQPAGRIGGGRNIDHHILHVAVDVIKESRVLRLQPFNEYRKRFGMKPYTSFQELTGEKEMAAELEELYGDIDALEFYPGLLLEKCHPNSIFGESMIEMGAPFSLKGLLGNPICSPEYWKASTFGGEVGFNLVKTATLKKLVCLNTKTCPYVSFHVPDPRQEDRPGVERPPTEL
Description: Briefly, COX reactions were performed. […] The prostaglandins were quantified by ELISA.

PDGFRβ = biological target: T4, PDGFRβ (Homo sapiens, UniProt P09619); assay: Kinase profiling assay (ADP-Glo), PDGFRβ; type: biochemical; conditions: 1 h, room temperature
T4 construct: purchased Promega Corporation
Description: as §1

HCT116 cells = assay: Detection of cell death, Hoechst 33342/annexin V/ethidium homodimer III staining; type: cell-based, human; conditions: 10 μM, 12 h
Description: The cells were then briefly washed twice with 1× binding buffer, a staining solution containing 50 μL of 1× binding buffer, 5 μL of FITC-Annexin V solution, 5 μL of ethidium homodimer III solution, and 5 μL of Hoechst 33342 solution and incubated for 15 min at room temperature in the dark. Then, cells were washed with 1× binding buffer and analyzed by a Biorevo Fluorescence BZ-9000 all-in-one fluorescence microscope (Keyence, Osaka, Japan). Numbers of healthy cells (Hoechst 33342), apoptotic cells (Annexin V), late apoptotic or necrotic cells (Annexin V and Ethidium homodimer III), and necrotic cells (Ethidium homodimer III) were counted, as previously described.
(B) A total of approximately 100 stained cells were selected randomly in each experiment of (A) and were classified into 4 types: “alive” (blue), “apoptosis” (green), “necrosis or late apoptosis” (both green and red), and “necrosis” (red). […] Data from three independent experiments are shown as means ± standard deviations and p values were determined using Student’s test.

EGFR = biological target: T5, EGFR (Homo sapiens, UniProt P00533); assay: Kinase profiling assay (ADP-Glo), EGFR; type: biochemical; conditions: 1 h, room temperature
T5 construct: purchased Promega Corporation
Description: as §1

InsR = biological target: T6, InsR (Homo sapiens, UniProt P06213); assay: Kinase profiling assay (ADP-Glo), InsR; type: biochemical; conditions: 1 h, room temperature
T6 construct: purchased Promega Corporation
Description: as §1

HER4 = biological target: T7, HER4 (Homo sapiens, UniProt Q15303); assay: Kinase profiling assay (ADP-Glo), HER4; type: biochemical; conditions: 1 h, room temperature
T7 construct: purchased Promega Corporation
Description: as §1

IGF1R = biological target: T8, IGF1R (Homo sapiens, UniProt P08069); assay: Kinase profiling assay (ADP-Glo), IGF1R; type: biochemical; conditions: 1 h, room temperature
T8 construct: purchased Promega Corporation
Description: as §1

PDGFRα = biological target: T9, PDGFRα (Homo sapiens, UniProt P16234); assay: Kinase profiling assay (ADP-Glo), PDGFRα; type: biochemical; conditions: 1 h, room temperature
T9 construct: purchased Promega Corporation
Description: as §1

T1 sequence (P35968 20-1356): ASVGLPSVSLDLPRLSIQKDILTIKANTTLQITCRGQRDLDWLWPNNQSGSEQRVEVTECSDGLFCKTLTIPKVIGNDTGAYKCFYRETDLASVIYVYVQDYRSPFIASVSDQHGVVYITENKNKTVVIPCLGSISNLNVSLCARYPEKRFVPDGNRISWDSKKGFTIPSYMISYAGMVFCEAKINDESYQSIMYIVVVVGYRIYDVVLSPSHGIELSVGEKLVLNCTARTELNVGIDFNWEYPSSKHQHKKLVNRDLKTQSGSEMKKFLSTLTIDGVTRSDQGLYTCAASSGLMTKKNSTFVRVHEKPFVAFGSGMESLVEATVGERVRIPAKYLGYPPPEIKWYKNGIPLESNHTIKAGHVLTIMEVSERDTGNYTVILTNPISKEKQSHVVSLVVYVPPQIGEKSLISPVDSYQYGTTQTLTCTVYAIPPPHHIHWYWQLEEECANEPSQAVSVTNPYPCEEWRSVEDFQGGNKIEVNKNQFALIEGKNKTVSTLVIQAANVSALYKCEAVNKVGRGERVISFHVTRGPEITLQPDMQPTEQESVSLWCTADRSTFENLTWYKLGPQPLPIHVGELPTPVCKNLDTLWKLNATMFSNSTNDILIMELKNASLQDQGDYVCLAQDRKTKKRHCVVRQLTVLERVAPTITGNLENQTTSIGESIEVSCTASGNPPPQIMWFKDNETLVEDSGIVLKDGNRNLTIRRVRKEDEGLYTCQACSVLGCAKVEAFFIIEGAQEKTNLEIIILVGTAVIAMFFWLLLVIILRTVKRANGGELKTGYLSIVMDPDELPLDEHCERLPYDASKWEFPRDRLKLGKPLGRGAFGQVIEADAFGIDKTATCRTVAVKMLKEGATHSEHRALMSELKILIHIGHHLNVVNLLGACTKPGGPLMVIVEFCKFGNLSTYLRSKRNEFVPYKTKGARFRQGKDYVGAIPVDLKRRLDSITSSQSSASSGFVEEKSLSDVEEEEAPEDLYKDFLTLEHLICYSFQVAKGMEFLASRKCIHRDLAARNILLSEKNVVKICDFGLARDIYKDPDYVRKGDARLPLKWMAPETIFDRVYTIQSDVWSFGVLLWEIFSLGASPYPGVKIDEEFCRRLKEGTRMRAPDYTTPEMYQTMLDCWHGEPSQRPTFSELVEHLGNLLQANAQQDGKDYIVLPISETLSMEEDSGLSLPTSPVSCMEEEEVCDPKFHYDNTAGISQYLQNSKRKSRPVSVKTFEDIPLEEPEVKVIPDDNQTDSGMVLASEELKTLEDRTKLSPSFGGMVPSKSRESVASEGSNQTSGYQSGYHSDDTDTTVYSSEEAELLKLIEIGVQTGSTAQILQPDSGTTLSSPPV
T2 sequence (P04626 23-1255): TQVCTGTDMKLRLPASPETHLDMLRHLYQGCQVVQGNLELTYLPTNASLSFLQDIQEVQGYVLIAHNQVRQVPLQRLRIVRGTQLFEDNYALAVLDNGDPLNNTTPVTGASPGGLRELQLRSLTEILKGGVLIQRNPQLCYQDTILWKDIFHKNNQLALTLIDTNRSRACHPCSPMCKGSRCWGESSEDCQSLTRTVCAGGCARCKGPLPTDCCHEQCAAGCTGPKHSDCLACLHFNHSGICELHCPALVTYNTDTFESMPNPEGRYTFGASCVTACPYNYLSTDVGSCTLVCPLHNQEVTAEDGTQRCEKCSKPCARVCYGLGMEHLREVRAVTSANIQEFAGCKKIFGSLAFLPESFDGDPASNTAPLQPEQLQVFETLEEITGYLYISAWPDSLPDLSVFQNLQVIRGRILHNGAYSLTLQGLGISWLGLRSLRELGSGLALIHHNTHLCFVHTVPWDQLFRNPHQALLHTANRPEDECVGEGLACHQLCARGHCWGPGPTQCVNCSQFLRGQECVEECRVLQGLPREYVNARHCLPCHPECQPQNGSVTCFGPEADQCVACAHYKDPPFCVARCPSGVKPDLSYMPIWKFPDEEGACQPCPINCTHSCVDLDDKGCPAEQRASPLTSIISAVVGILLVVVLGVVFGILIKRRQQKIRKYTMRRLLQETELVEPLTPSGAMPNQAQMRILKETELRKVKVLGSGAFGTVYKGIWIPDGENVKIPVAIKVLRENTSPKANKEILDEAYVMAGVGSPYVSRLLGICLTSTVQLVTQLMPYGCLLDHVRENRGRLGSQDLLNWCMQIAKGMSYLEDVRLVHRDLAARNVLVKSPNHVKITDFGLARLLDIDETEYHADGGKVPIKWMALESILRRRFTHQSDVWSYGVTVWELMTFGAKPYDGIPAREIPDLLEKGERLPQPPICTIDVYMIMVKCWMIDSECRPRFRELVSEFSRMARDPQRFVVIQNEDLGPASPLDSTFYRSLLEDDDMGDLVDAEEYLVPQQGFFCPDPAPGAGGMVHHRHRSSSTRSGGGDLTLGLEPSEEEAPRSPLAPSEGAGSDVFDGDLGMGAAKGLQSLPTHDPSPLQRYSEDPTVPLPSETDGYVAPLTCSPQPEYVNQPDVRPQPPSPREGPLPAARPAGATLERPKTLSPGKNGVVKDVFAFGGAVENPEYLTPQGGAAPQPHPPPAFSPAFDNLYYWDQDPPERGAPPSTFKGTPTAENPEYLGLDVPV
T9 sequence (P16234 24-1089): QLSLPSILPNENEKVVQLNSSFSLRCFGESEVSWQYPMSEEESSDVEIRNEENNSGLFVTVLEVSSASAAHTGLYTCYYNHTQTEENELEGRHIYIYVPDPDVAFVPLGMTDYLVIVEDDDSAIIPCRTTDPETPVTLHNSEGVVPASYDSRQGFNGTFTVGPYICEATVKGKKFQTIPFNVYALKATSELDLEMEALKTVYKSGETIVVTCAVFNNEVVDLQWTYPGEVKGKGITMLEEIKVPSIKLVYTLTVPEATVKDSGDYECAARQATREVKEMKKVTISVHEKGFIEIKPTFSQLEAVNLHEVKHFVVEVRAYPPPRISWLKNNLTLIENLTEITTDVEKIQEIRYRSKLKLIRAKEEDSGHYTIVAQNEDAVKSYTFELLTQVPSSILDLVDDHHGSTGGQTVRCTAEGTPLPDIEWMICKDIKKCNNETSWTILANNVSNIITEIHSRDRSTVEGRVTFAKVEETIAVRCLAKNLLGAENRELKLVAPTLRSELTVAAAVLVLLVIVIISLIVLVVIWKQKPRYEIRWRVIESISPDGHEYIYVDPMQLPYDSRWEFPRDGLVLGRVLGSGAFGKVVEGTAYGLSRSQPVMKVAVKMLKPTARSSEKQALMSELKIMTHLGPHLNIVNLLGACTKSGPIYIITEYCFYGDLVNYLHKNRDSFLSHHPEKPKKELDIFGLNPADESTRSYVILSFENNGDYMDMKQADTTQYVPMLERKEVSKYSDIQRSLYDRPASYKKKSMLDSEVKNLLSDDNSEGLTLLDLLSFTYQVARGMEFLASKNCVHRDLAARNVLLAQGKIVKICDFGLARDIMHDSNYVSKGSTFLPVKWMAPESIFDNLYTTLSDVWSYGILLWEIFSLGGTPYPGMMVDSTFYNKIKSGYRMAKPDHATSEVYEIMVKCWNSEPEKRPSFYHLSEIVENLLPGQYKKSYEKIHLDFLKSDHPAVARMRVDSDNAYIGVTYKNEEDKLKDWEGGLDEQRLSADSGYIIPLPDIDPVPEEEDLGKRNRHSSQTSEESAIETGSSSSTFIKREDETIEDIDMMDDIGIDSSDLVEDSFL
T7 sequence (Q15303 26-1308): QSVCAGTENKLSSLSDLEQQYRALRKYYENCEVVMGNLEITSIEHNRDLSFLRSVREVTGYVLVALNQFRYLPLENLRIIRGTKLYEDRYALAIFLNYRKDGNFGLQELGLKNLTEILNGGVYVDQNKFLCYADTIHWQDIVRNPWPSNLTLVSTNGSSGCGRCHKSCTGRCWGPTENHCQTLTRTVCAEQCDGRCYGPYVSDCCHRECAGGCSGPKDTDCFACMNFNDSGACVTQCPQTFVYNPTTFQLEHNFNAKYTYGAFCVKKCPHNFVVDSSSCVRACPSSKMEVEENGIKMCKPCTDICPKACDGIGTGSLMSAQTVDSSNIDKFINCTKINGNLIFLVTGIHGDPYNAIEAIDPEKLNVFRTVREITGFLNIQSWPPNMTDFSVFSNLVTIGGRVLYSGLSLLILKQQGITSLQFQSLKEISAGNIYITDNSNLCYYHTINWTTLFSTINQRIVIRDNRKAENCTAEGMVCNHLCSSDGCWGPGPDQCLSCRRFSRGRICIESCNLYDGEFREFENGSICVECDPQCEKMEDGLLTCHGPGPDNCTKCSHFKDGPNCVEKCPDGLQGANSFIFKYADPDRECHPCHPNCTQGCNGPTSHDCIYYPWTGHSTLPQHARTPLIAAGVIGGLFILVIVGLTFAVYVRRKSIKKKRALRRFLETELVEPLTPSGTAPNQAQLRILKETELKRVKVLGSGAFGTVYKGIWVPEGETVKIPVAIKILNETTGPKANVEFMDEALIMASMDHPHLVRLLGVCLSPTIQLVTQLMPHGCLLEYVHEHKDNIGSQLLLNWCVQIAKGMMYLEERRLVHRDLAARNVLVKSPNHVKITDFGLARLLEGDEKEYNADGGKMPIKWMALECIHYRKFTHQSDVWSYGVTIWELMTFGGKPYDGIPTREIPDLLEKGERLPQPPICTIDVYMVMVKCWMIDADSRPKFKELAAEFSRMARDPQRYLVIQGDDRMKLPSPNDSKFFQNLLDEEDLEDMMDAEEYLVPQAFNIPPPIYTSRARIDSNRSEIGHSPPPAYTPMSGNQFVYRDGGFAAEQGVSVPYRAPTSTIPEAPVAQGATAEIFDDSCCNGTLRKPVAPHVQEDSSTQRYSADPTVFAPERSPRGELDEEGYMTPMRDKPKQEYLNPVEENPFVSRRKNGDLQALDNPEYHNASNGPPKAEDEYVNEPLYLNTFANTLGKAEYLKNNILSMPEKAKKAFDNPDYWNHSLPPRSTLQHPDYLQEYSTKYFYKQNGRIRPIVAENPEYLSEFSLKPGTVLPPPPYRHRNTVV

| melting point | SMILES | IC50 [1] | IC50 [2] | IC50 [3] | IC50 [4] | IC50 [5] | other results |
| --- | --- | --- | --- | --- | --- | --- | --- |
| 233.9 to 234.5 °C | O=C(CSc1nnc(Cc2c[nH]c3ccccc23)o1)Nc1ncc([N+](=O)[O-])s1 [Compound 2h, 2-[(5-((1H-Indol-3-yl)methyl)-1,3,4-oxadiazol-2-yl)thio]-N-[5-nitrothiazol-2-yl]acetamide] | > 100 µM | > 100 µM | > 100 µM |  |  |  |
| 177.4 to 178.2 °C | O=C(CSc1nnc(Cc2c[nH]c3ccccc23)o1)Nc1nccs1 [Compound 2g, 2-[(5-((1H-Indol-3-yl)methyl)-1,3,4-oxadiazol-2-yl)thio]-N-(thiazol-2-yl)acetamide] | > 100 µM | > 100 µM | > 100 µM |  |  |  |
| 240.6 to 241.5 °C | O=C(CSc1nnc(Cc2c[nH]c3ccccc23)o1)Nc1nc2ccc(Br)cc2s1 [Compound 2c, 2-[(5-((1H-Indol-3-yl)methyl)-1,3,4-oxadiazol-2-yl)thio]-N-(6-bromobenzothiazol-2-yl)acetamide] | > 100 µM | 48.5 ± 5.78 µM | 24.9 ± 1.96 µM |  |  |  |

Second part, the molecule before the results:

| SMILES | melting point | IC50 [1] | IC50 [2] | IC50 [3] | IC50 [4] | IC50 [5] | other results |
| --- | --- | --- | --- | --- | --- | --- | --- |
| CCOC(=O)Cc1csc(NC(=O)CSc2nnc(Cc3c[nH]c4ccccc34)o2)n1 [Compound 2i, 2-[(5-((1H-Indol-3-yl)methyl)-1,3,4-oxadiazol-2-yl)thio]-N-[4-(ethoxycarbonylmethyl)thiazol-2-yl]acetamide] | 158 to 158.6 °C | > 100 µM | 95.9 ± 12.4 µM | 71.9 ± 10.3 µM |  |  |  |
| Cc1ccc2nc(NC(=O)CSc3nnc(Cc4c[nH]c5ccccc45)o3)sc2c1 [Compound 2d, 2-[(5-((1H-Indol-3-yl)methyl)-1,3,4-oxadiazol-2-yl)thio]-N-(6-methylbenzothiazol-2-yl)acetamide] |  | 18.2 ± 1.19 µM | 30.2 ± 3.12 µM | 36.9 ± 5.43 µM | 21.1 ± 1.85 µM | > 300 µM |  |
| O=C(CSc1nnc(Cc2c[nH]c3ccccc23)o1)Nc1nc2ccc([N+](=O)[O-])cc2s1 [Compound 2f, 2-[(5-((1H-Indol-3-yl)methyl)-1,3,4-oxadiazol-2-yl)thio]-N-(6-nitrobenzothiazol-2-yl)acetamide] |  | > 100 µM | > 100 µM | > 100 µM |  |  |  |
| CCOc1ccc2nc(NC(=O)CSc3nnc(Cc4c[nH]c5ccccc45)o3)sc2c1 [Compound 2e, 2-[(5-((1H-Indol-3-yl)methyl)-1,3,4-oxadiazol-2-yl)thio]-N-(6-ethoxybenzothiazol-2-yl)acetamide] |  | 6.43 ± 0.72 µM |  | 9.62 ± 1.14 µM | 6.45 ± 1.02 µM | > 300 µM | IC50 (KDR): > 30 µM; IC50 (HER2): > 30 µM; IC50 (COX-1): 73.5 ± 2.12 µM; IC50 (PDGFRβ): 6.16 ± 1.58 µM; apoptosis (apoptotic cells) (HCT116 cells): 28.35%; late apoptotic or necrotic effects (HCT116 cells): 9.81%; IC50 (EGFR): 2.8 ± 0.52 µM; IC50 (InsR): 29.1 ± 4.66 µM; IC50 (HER4): 8.22 ± 1.64 µM; IC50 (IGF1R): > 30 µM; IC50 (PDGFRα): > 30 µM |
| O=C(CSc1nnc(Cc2c[nH]c3ccccc23)o1)Nc1nc2ccc(Cl)cc2s1 [Compound 2b, 2-[(5-((1H-Indol-3-yl)methyl)-1,3,4-oxadiazol-2-yl)thio]-N-(6-chlorobenzothiazol-2-yl)acetamide] |  | > 100 µM | 37.6 ± 5.62 µM | 60.7 ± 9.48 µM |  |  |  |
| O=C(CSc1nnc(Cc2c[nH]c3ccccc23)o1)Nc1nc2ccccc2s1 [Compound 2a, 2-[(5-((1H-Indol-3-yl)methyl)-1,3,4-oxadiazol-2-yl)thio]-N-(benzothiazol-2-yl)acetamide] |  | 26.2 ± 1.75 µM | 65.1 ± 10.1 µM | 40.4 ± 7.74 µM | 17.7 ± 3.59 µM | > 300 µM |  |
| C#Cc1cccc(Nc2ncnc3cc(OCCOC)c(OCCOC)cc23)c1 [Erlotinib, reference compound] |  |  | 23.8 ± 4.17 µM | 19.4 ± 2.38 µM | 9.47 ± 2.15 µM | 45.7 ± 8.88 µM | apoptosis (apoptotic cells) (HCT116 cells): 7.42%; late apoptotic or necrotic effects (HCT116 cells): 10.45% |
